Measured values reported in patent US8937044B2, “Process for the synchronization of ovulation for timed breeding without heat detection” (priority 2003, dated 2015).

What was measured:
Format in all cases: in vivo, swine
[1] = test system: postpartum sows; test: Timed deslorelin injection 96 h post-weaning and single timed insemination without estrus detection (Example 3)
Procedure: (§1) Approximately 170 postpartum sows were randomly divided into two equal groups comprised of controls and treated. Following weaning, the controls were detected for estrus and bred following the normal standard operating procedures for the farms on which they resided. The treated sows received a 50 mcg dose of deslorelin in SAIB at 96 hours post-weaning and were bred with a single insemination 28+/−2 hours later with no regard to estrus detection. The sows were examined for pregnancy by ultrasound at 21 days and slaughtered around 28 days post breeding. The entire reproductive tract was removed and corpora lutea and embryos were counted.

[2] = test system: postpartum sows; test: Pregnancy rate after deslorelin treatment in sows, summary of Tables 2-5; conditions: Table 6 summary
Procedure: as §1, with “counted. Postpartum sows were randomly distributed into three different groups comprised of Controls, Treatment 1, and Treatment 2, with the exception of Site 3, which was divided into two groups, Control and Treatment 2. Control sows were detected for estrus following weaning, and bred following the normal standard operating procedures for the farms on which they resided. Treatment 1 sows were detected for estrus following weaning, and received a 50 mcg dose of deslorelin in the morning when standing and were bred by AI 4 hours later and again at 24+/−2 hours later. Treatment 2 sows received a 50 mcg dose of deslorelin in SAIB at 96 or 120 hours post-weaning and were bred with a single insemination 28+/−2 hours later with, no regard to estrus detection.” for “counted.”

[3] = test system: postpartum sows; test: Litter size after deslorelin treatment in sows, three farm sites (Example 4); conditions: Tables 3-5, three sites, regardless of estrus detection
Text: Postpartum sows were randomly distributed into three different groups comprised of Controls, Treatment 1, and Treatment 2, with the exception of Site 3, which was divided into two groups, Control and Treatment 2. Control sows were detected for estrus following weaning, and bred following the normal standard operating procedures for the farms on which they resided. Treatment 1 sows were detected for estrus following weaning, and received a 50 mcg dose of deslorelin in the morning when standing and were bred by AI 4 hours later and again at 24+/−2 hours later. Treatment 2 sows received a 50 mcg dose of deslorelin in SAIB at 96 or 120 hours post-weaning and were bred with a single insemination 28+/−2 hours later with, no regard to estrus detection.

[4] = test system: LH; test: LH response (RIA) in ovariectomized estrogen primed gilt model, dose response study; conditions: single injection of 50 mcg in SAIB
Procedure: A dose response study was performed using deslorelin in SAIB in an ovariectomized estrogen primed gilt model (Barb, et al. (1999) Proceed. Int'l. Symp. Control. Rel. Bioact. Mater., 26).

[5] = test system: mature postpartum sows; test: Deslorelin at first detected estrus in postpartum sows, AI breeding (Example 2)
Procedure: Sows were assigned randomly in blocks of two to either control or to be injected intravulvar with 50 mcg of deslorelin in SAIB at the time of estrus detection for sows first detected in estrus in the a.m. and 12 hours later for those first detected in estrus in the p.m. Treated animals were bred AI upon detected estrus and again 24 hours later if still in estrus. Controls received a saline injection on first detected estrus behavior estrus detection and were bred according to the farm's normal procedures.

Question: How did the “Embryo Survival” value ([1]; 50 mcg in SAIB 96 h post-weaning, single insemination 28+/-2 h later) turn out when `CCNC(=O)[C@@H]1CCCN1C(=O)[C@H](CCCN=C(N)N)NC(=O)[C@H](CC(C)C)NC(=O)[C@@H](Cc1c[nH]c2ccccc12)NC(=O)[C@H](Cc1ccc(O)cc1)NC(=O)[C@H](CO)NC(=O)[C@H](Cc1c[nH]c2ccccc12)NC(=O)[C@H](Cc1cnc[nH]1)NC(=O)[C@@H]1CCC(=O)N1` [Deslorelin, deslorelin] was run?
Answer: 64%

Question: What about the “Sows Pregnant” value ([1]; 50 mcg in SAIB 96 h post-weaning, single insemination 28+/-2 h later, 84 sows in group) of the same molecule?
Answer: 60

Question: And the “Pregnancy Rate” value ([1]; 50 mcg in SAIB 96 h post-weaning, single insemination 28+/-2 h later, no estrus detection)?
Answer: 71%

Question: What about the “pregnancy rates (in words)” value ([1]; single timed injection in SAIB post-weaning, single timed insemination, no estrus detection) of the same molecule?
Answer: normal pregnancy rates were attained

Question: What about the “pregnancy rates (in words)” value [2] of the same molecule?
Answer: normal pregnancy rates were obtained

Question: What about the “litter sizes (in words)” value [3] of the same molecule?
Answer: normal litter sizes

Question: What about the “time at which LH returned to base level” value [4] of the same molecule?
Answer: ≤ 18 h

Question: And the “LH peak relative to normal value” ([4]; normal value from Hansel et al. 1973)?
Answer: about twice normal value

Question: What about the “Pregnancy Rate” value ([5]; 50 μg deslorelin acetate (1 ml) intravulvar at first estrus detection, AI, again next day if in estrus, n = 75) of the same molecule?
Answer: 91%

Question: What about the “pregnancy rates, Control versus Treated (in words)” value ([5]; 50 mcg in SAIB intravulvar at estrus detection) of the same molecule?
Answer: no significant difference
